Tests used:
Assay in all cases: concentration in plasma after dosing
[1] = test system: Rat; conditions: dosed: Phenolphthalein, 25 mg/kg, iv, Male, F344
[2] = test system: Rat; conditions: dosed: Phenolphthalein, 25 mg/kg, iv, Female, F344
[3] = test system: Rat; conditions: dosed: Phenolphthalein, 25 mg/kg, iv, Female, F344; remark: listed apart in the source
[4] = test system: Rat; conditions: 16 h; dosed: Phenolphthalein; 25 mg/kg; iv; Female; F344
[5] = test system: Rat; conditions: dosed: Phenolphthalein, 25 mg/kg, iv, Female, F344; remark: listed apart in the source
[6] = test system: Rat; conditions: dosed: Phenolphthalein, 25 mg/kg, iv, Female, F344; remark: listed apart in the source
[7] = test system: Rat; conditions: dosed: Phenolphthalein, 25 mg/kg, iv, Female, F344; remark: listed apart in the source
[8] = test system: Rat; conditions: dosed: Phenolphthalein, 25 mg/kg, iv, Male, F344; remark: listed apart in the source
[9] = test system: Rat; conditions: dosed: Phenolphthalein, 25 mg/kg, iv, Female, F344; remark: listed apart in the source
[10] = test system: Rat; conditions: 2.5 min; dosed: Phenolphthalein; 25 mg/kg; iv; Male; F344
[11] = test system: Rat; conditions: dosed: Phenolphthalein, 25 mg/kg, iv, F344
[12] = test system: Rat; conditions: 5 min; dosed: Phenolphthalein; 25 mg/kg; iv; Male; F344
[13] = test system: Rat; conditions: dosed: Phenolphthalein, 25 mg/kg, iv, Female, F344; remark: listed apart in the source
[14] = test system: Rat; conditions: dosed: Phenolphthalein, 25 mg/kg, iv, Female, F344; remark: listed apart in the source
[15] = test system: Rat; conditions: dosed: Phenolphthalein, 25 mg/kg, iv, Female, F344; remark: listed apart in the source
[16] = test system: Rat; conditions: dosed: Phenolphthalein, 25 mg/kg, iv, Female, F344; remark: listed apart in the source
[17] = test system: Rat; conditions: dosed: Phenolphthalein, 25 mg/kg, iv, Male, F344; remark: listed apart in the source
[18] = test system: Rat; conditions: 4 h; dosed: Phenolphthalein; 25 mg/kg; iv; Male; F344
[19] = test system: Rat; conditions: 5 min; dosed: Phenolphthalein; 25 mg/kg; iv; Male; F344; remark: listed apart in the source
[20] = test system: Rat; conditions: 1 h; dosed: Phenolphthalein; 25 mg/kg; iv; Male; F344
[21] = test system: Rat; conditions: 5 h; dosed: Phenolphthalein; 25 mg/kg; iv; Male; F344
[22] = test system: Rat; conditions: dosed: Phenolphthalein, 25 mg/kg, iv, Male, F344; remark: listed apart in the source
[23] = test system: Rat; conditions: dosed: Phenolphthalein, 25 mg/kg, iv, Female, F344; remark: listed apart in the source
[24] = test system: Rat; conditions: dosed: Phenolphthalein, 25 mg/kg, iv, Female, F344; remark: listed apart in the source
[25] = test system: Rat; conditions: 16 h; dosed: Phenolphthalein; 25 mg/kg; iv; Female; F344; remark: listed apart in the source
[26] = test system: Rat; conditions: 2.5 min; dosed: Phenolphthalein; 25 mg/kg; iv; Male; F344; remark: listed apart in the source
[27] = test system: Rat; conditions: 3 h; dosed: Phenolphthalein; 25 mg/kg; iv; Male; F344
[28] = test system: Rat; conditions: dosed: Phenolphthalein, 25 mg/kg, iv, Female, F344; remark: listed apart in the source
[29] = test system: Rat; conditions: 3 h; dosed: Phenolphthalein; 25 mg/kg; iv; Male; F344; remark: listed apart in the source
[30] = test system: Rat; conditions: dosed: Phenolphthalein, 25 mg/kg, iv, Female, F344; remark: listed apart in the source
[31] = test system: Rat; conditions: 5 h; dosed: Phenolphthalein; 25 mg/kg; iv; Male; F344; remark: listed apart in the source

## O=C1OC(c2ccc(O)cc2)(c2ccc(O)cc2)c2ccccc21 [Phenolphthalein]
[1]; 2 h
  concentration in plasma: 636 ng/mL
[1]; 8 h
  concentration in plasma: 110 ng/mL
[2]; 5 h
  concentration in plasma: 56.9 ng/mL
[2]; 10 h
  concentration in plasma: 70.2 ng/mL
[3]; 1 h
  concentration in plasma: 1400 ng/mL
[3]; 6 h
  concentration in plasma: 392 ng/mL
[4]
  concentration in plasma: 24.5 ng/mL
[5]; 4 h
  concentration in plasma: 127 ng/mL
[5]; 7 h
  concentration in plasma: 36.5 ng/mL
[6]; 2.5 min
  concentration in plasma: 164000 ng/mL
[6]; 20 h
  concentration in plasma: 22 ng/mL
[7]; 3 h
  concentration in plasma: 153 ng/mL
[7]; 12 h
  concentration in plasma: 26.7 ng/mL
[8]; 4 h
  concentration in plasma: 366 ng/mL
[8]; 7 h
  concentration in plasma: 63 ng/mL
[9]; 1 h
  concentration in plasma: 841 ng/mL
[9]; 6 h
  concentration in plasma: 290 ng/mL
[10]
  concentration in plasma: 216000 ng/mL
[11]; 2.5 min, Female
  concentration in plasma: 115000 ng/mL
[11]; 2.5 min, Male
  concentration in plasma: 195000 ng/mL
[11]; 5 min, Female
  concentration in plasma: 52300 ng/mL
[11]; 5 min, Male
  concentration in plasma: 51000 ng/mL
[11]; 1 h, Female
  concentration in plasma: 1090 ng/mL
[11]; 1 h, Male
  concentration in plasma: 1790 ng/mL
[11]; 2 h, Female
  concentration in plasma: 259 ng/mL
[11]; 2 h, Male
  concentration in plasma: 592 ng/mL
[11]; 3 h, Female
  concentration in plasma: 290 ng/mL
[11]; 3 h, Male
  concentration in plasma: 43.2 ng/mL
[11]; 4 h, Female
  concentration in plasma: 173 ng/mL
[11]; 4 h, Male
  concentration in plasma: 317 ng/mL
[11]; 5 h, Female
  concentration in plasma: 105 ng/mL
[11]; 5 h, Male
  concentration in plasma: 691 ng/mL
[11]; 6 h, Female
  concentration in plasma: 89.9 ng/mL
[11]; 6 h, Male
  concentration in plasma: 59.4 ng/mL
[11]; 7 h, Female
  concentration in plasma: 56.9 ng/mL
[11]; 7 h, Male
  concentration in plasma: 248 ng/mL
[11]; 8 h, Female
  concentration in plasma: 32.4 ng/mL
[11]; 8 h, Male
  concentration in plasma: 274 ng/mL
[11]; 10 h, Female
  concentration in plasma: 45.5 ng/mL
[11]; 10 h, Male
  concentration in plasma: 42.3 ng/mL
[11]; 12 h, Female
  concentration in plasma: 98.5 ng/mL
[11]; 16 h, Female
  concentration in plasma: 120 ng/mL
[11]; 16 h, Male
  concentration in plasma: 20.2 ng/mL
[11]; 20 h, Female
  concentration in plasma: 18.6 ng/mL
[11]; 24 h, Female
  concentration in plasma: 60.2 ng/mL
[12]
  concentration in plasma: 58300 ng/mL
[13]; 3 h
  concentration in plasma: 336 ng/mL
[13]; 12 h
  concentration in plasma: 96 ng/mL
[14]; 4 h
  concentration in plasma: 47.5 ng/mL
[14]; 7 h
  concentration in plasma: 15.5 ng/mL
[15]; 5 min
  concentration in plasma: 5180 ng/mL
[15]; 24 h
  concentration in plasma: 69.4 ng/mL
[16]; 2 h
  concentration in plasma: 261 ng/mL
[16]; 8 h
  concentration in plasma: 46.7 ng/mL
[17]; 1 h
  concentration in plasma: 2380 ng/mL
[17]; 6 h
  concentration in plasma: 199 ng/mL
[18]
  concentration in plasma: 25.1 ng/mL
[19]
  concentration in plasma: 58500 ng/mL
[20]
  concentration in plasma: 1990 ng/mL
[21]
  concentration in plasma: 552 ng/mL
[22]; 2 h
  concentration in plasma: 662 ng/mL
[22]; 8 h
  concentration in plasma: 83.6 ng/mL
[23]; 2.5 min
  concentration in plasma: 167000 ng/mL
[23]; 20 h
  concentration in plasma: 17.4 ng/mL
[24]; 5 h
  concentration in plasma: 58.5 ng/mL
[24]; 10 h
  concentration in plasma: 17.4 ng/mL
[25]
  concentration in plasma: 20.3 ng/mL
[26]
  concentration in plasma: 219000 ng/mL
[27]
  concentration in plasma: 561 ng/mL
[28]; 5 min
  concentration in plasma: 52100 ng/mL
[28]; 24 h
  concentration in plasma: 23 ng/mL
[29]
  concentration in plasma: 94.5 ng/mL
[30]; 2 h
  concentration in plasma: 261 ng/mL
[30]; 8 h
  concentration in plasma: 43.2 ng/mL
[31]
  concentration in plasma: 19.1 ng/mL
